Consider 1 compound from US11583570B2, “Use of autoinducer-related pathway in inducing apoptosis and anti-infective therapy” (TSINGHUA UNIVERSITY, priority 2017, dated 2023).

The subject of series [1] is TNFR1. The series can be described thus: DTSSP cross-linking assay, TNFR1. The format is cell-based. Particulars: crosslinker DTSSP, non-reducing condition. The protocol:
(§1) For FADD immunoprecipitation, 4 μg anti-mouse FADD pAb (Santa Cruz, H-181) were incubated with 100 μl protein A/G agarose for 2 hrs at RT. 3 million/ml purified CD4 T cells were stimulated with HSLs or left untreated. The cells were then collected and lysed with IP lysis buffer (50 mM HEPES pH 7.4, 150 mM NaCl, 1% NP-40, 1 mM EDTA, 1 mM PMSF, 1 mM NaF, 1 mM NaVO3 and protease inhibitor cocktails). The cell lysates were added into antibody-bead mixtures for 3 hrs at 4° C. Beads were then collected by low speed centrifugation (1000 g, 5 min) and washed 4 times with IP lysis buffer (300 mM NaCl added). After the last wash, pellets were suspended with 70 ul 2×SDS loading buffer and boiled for 5 min. For caspase 8 immunoprecipitation, 4 μg anti-Caspase 8 pAb (Santa Cruz, C-20) was incubated with 100 μl protein A/G agarose for 1 hr at RT. 3 million/ml H9 cells were treated with HSLs or left untreated. The samples were processed as in FADD IP. For cross-linking assay, CD4+ T cells isolated from C57BL/6 mice spleen or human THP-1 cells was stimulated with HSLs or left untreated, then cells were collected and cross-linked by 10 mM DTSSP at RT for 30 min and quenched with 1M Tris-HCl (pH7.5) for 15 min. […]

Series [2] has as its system caspases 8 and 3. The series can be described thus: Caspase 8 and 3 cleavage in CD4 T cells (Western blot), mouse. The format is cell-based. Particulars: mouse (FIG. 2d). (In general: In western blotting, separated proteins are transferred to a membrane and probed.)
Series [3] concerns transformed DC line DC2.4. The series can be described thus: Annexin V/PI apoptosis detection, DC2.4. In kind it is cell-based. The protocol:
(§2) Cell apoptosis was detected with Annexin V/PI apoptosis detection Kit. Briefly, cells were stimulated with HSLs or left untreated. 6 hrs later, cells were collected and stained with Annexin VFITC and PI for 15 min at RT, then the apoptotic effect was measured by flow cytometry. OT-I or OT-II splenocytes were pulsed with specific peptides or PMA and ionomycin mixture with or without HSLs or TNF α plus cycloheximide. 24 hrs later, cells and supernatants were collected separately. For OT-I activation, cells were stained with CD69 and CD8. For OT-II activation, cells were stained with CD69 and CD4. Cell activation was measured by flow cytometry. All supernatants were detected for IL-2 secretion by ELISA.

The nature of series [4]: Atomic force microscopy of reconstituted lipid domains. The format is physicochemical. The protocol: […] The dried lipid film was resuspended with 4 mM HEPES buffer (with 150 mM NaCl) to produce SUV. Vesicle solution (100 μl) was added to freshly cleaved mica clamped in a fluid cell on the AFM heater head. After incubation at 55° C. for 30 min and then kept at RT for another 30 min, the bilayers were rinsed extensively with HEPES buffer to remove excess vesicles.
AFM images were obtained at RT on a NanoScope V Multimode Scanning Probe Microscope (Digital Instrument, Veeco, Santa Barbara, Calif., USA) in the tapping mode using V shape Si3N4 tips (model DNL-10) with spring constants of ˜0.35 N/m and resonance frequencies between 8 and 10 kHz in aqueous solutions. All experiments were conducted in Hepes buffer using a commercially available fluid cell, sealed by an O-ring. A J scanner (125 μm×125 μm) was used with a scan rate between 0.8 and 2 Hz per line.

Series [5] has as its system Iκbα. Put plainly: Iκbα degradation in non-apoptotic Jurkat cells. In kind it is cell-based.
Series [6] concerns caspases 8 and 3. Put plainly: Caspase 8 and 3 cleavage in human cells (Western blot). In kind it is cell-based. The note with it: human (FIGS. 3a and b).
The test system of series [7] is THP-1 cell line. Put plainly: Annexin V/PI apoptosis detection, THP-1. The format is cell-based, human. The note with it: THP-1. The protocol: as §2
In order to verify TNFR1-FADD-caspase8-caspase3 pathway inhibitor can block immunocyte apoptosis caused by 3OC12-HSL clinically. The inventors use a clinical version of caspase inhibitor Emricasan as a test. […] To be specific, in a 12 plate, THP-1 cells were cultured with indicated concentrations of 3OC and Emricasan. After 1 hr, cells were collection for flow cytometric analysis of AnnexinV and PI. […] In FIG. 17b, live cell percentage of different treatment were enumerated by flow cytometry. Bar graphs of live cell percentage are depicted by mean±SEM. Then samples prepared as in FIG. 17a and FIG. 17b were used for WB analysis for the activation (cleavage) of Caspase 8 and 3. […]

Series [8] has as its system Fas. Put plainly: DTSSP cross-linking assay, Fas. In kind it is cell-based. The note with it: crosslinker DTSSP, prolonged incubation. How it is done:
as §1

In series [9] the test system is reticuloma A20. The series can be described thus: Annexin V/PI apoptosis detection, A20. In kind it is cell-based. How it is done:
as §2

The test system of series [10] is T cell. Put plainly: Annexin V/PI apoptosis detection, T cells. In kind it is cell-based. Particulars: 10 and 20 μM. The protocol:
as §2

Series [11] has as its system FADD in complex with caspase 8. Put plainly: FADD / caspase 8 co-immunoprecipitation. The format is cell-based. The note with it: following 3OC12 HSL treatment. The protocol: as §1

Turning to `CCCCCCCCCC(=O)CC(=O)N[C@H]1CCOC1=O` [3OC12 HSL, N-(3-oxo-dodecanoyl) homoserine lactone], in [1], the “amount of band with approximate 3 times the molecular weight of TNFR1 monomer” value was “rapidly increased”. Further, the “caspase 8 and 3 cleavage” value is “cleaved in a dose and time-dependent manner” in series [2]; “cleaved in a dose and time-dependent manner” in series [6]. Further, the “sensitivity to 3OC12 HSL” value in [3], in [7] and in series [9] was “sensitive” in each case. Further, the “appearance of ordered lipid domains” value in [4] (domains with cholesterol and sphingolipids) is “clear dissolution of the elevated plains”. Moreover, the “appearance of smaller domains unrelated to lipid rafts” value in series [4] (mixture of DOPC and DPPG) is “minimally affected”. For the same compound, the Iκbα degradation result in series [5] is recorded as “degraded”. Also, in [8], the Fas oligomerization entry is recorded as “did not show a significant change”. For the same compound, in [10], the T cell death entry was “significant T cell death”. In series [11], the “FADD association with caspase 8” value is “in complex with caspase 8”.
